We go through 13 molecules from ChEMBL document CHEMBL2424559, “Design, synthesis and antitubercular evaluation of novel 2-substituted-3H-benzofuro benzofurans via palladium-copper catalysed Sonagashira coupling reaction” (Bioorg Med Chem Lett, 2013).

Structures are written as SMILES. Values after ≈ are worked out from the molar mass of the structure shown. Some results are limits rather than exact numbers.

System in one data set: not listed separately
Kind of data set: Lipophilicity, log P of the compound. As to conditions: octanol/water. Type of data set: physicochemical.
One may read the logP as a log measure of how a compound divides between an organic and an aqueous phase. Read a low logP as a more hydrophilic compound. For `FC(F)(F)Oc1ccc(-c2cc3c(ccc4oc5ccccc5c43)o2)cc1`, the logP amounted to 5.57.
The same measure, in the same setting: the same measure for `Cc1ccc(-c2cc3c(ccc4oc5ccccc5c43)o2)cc1`: 4.53; for `c1ccc(-c2cc3c(ccc4oc5ccccc5c43)o2)cc1`: 4.04; for `c1ccc2c(c1)oc1ccc3oc(-c4ccsc4)cc3c12`: 3.97.
Still for that read-out and setting: as for `Fc1ccc(-c2cc3c(ccc4oc5ccccc5c43)o2)c(F)c1`, the figure is 4.36; as for `COc1ccc(-c2cc3c(ccc4oc5ccccc5c43)o2)c(C)c1`, 4.4.
The same measure, in the same setting: as for `CCCCCc1ccc(-c2cc3c(ccc4oc5ccccc5c43)o2)cc1`, the figure is 5.78.
Take `Cc1cccc(-c2cc3c(ccc4oc5ccccc5c43)o2)c1`: the logP is 4.53.
`CCCCCCc1cc2c(ccc3oc4ccccc4c32)o1`: the logP came out at 4.8.
The same measure, in the same setting: the same measure for `COc1ccc(-c2cc3c(ccc4oc5ccccc5c43)o2)cc1`: 3.92.

System in another data set: not listed separately
Kind of data set: Therapeutic index, ratio of inhibition of HEK293T cells to MIC for Mycobacterium tuberculosis H37Rv ATCC 27294. Type of data set: cell-based, HEK-293T. Conditions: human, read-out: TI.
Consider `COc1ccc(-c2cc3c(ccc4oc5ccccc5c43)o2)c(C)c1`, for which the selectivity ratio is more than 10.

The next data set concerns Mycobacterium tuberculosis. In words: microbe, parasite or virus in culture. Conditions: H37Rv ATCC 27294, 672 h.
Description: Antimycobacterial activity against Mycobacterium tuberculosis H37Rv ATCC 27294 after 28 days by agar dilution method
Consider `FC(F)(F)Oc1ccc(-c2cc3c(ccc4oc5ccccc5c43)o2)cc1`, for which the MIC was determined as 50 µg/mL (≈ 136 µM).
On to `NNC(=O)c1ccncc1` [ISONIAZID], for which the MIC was 0.1 µg/mL (≈ 0.729 µM).
Same read-out and setting: the same measure for `Cc1ccc(-c2cc3c(ccc4oc5ccccc5c43)o2)cc1`: 6.25 µg/mL (≈ 20.9 µM).
The same measure, in the same setting: as for `c1ccc(-c2cc3c(ccc4oc5ccccc5c43)o2)cc1`, the figure is 6.25 µg/mL (≈ 22 µM); as for `c1ccc2c(c1)oc1ccc3oc(-c4ccsc4)cc3c12`, 50 µg/mL (≈ 172 µM); as for `Fc1ccc(-c2cc3c(ccc4oc5ccccc5c43)o2)c(F)c1`, 50 µg/mL (≈ 156 µM).
The same measure, in the same setting: as for `COc1ccc(-c2cc3c(ccc4oc5ccccc5c43)o2)c(C)c1`, the figure is 3.12 µg/mL (≈ 9.5 µM).
As for `CC[C@@H](CO)NCCN[C@@H](CC)CO` [ETHAMBUTOL], the MIC was 3.13 µg/mL (≈ 15.3 µM).
On the same count and under the same terms, as for `CCCCCc1ccc(-c2cc3c(ccc4oc5ccccc5c43)o2)cc1`, the figure is 12.5 µg/mL (≈ 35.3 µM).
Same read-out and setting: the same measure for `Cc1cccc(-c2cc3c(ccc4oc5ccccc5c43)o2)c1`: 12.5 µg/mL (≈ 41.9 µM); for `NC(=O)c1cnccn1` [PYRAZINAMIDE]: 50 µg/mL (≈ 406 µM); for `CCCCCCc1cc2c(ccc3oc4ccccc4c32)o1`: 6.25 µg/mL (≈ 21.4 µM).
On the same count and under the same terms, as for `COc1ccc(-c2cc3c(ccc4oc5ccccc5c43)o2)cc1`, the figure is 50 µg/mL (≈ 159 µM).

System in a further data set: not listed separately
Kind of data set: Cytotoxicity against HEK293T cells at 50 ug/ml after 72 hrs by MTT assay. It counts as cell-based, HEK-293T. As to conditions: human, read-out: INH. (In general: Formazan colour is commonly taken as a measure of viable cells.)
On to `FC(F)(F)Oc1ccc(-c2cc3c(ccc4oc5ccccc5c43)o2)cc1`, for which the cytotoxicity at 72 h, 50 ug/ml was determined as 72.1%.
Still for that read-out and setting: the same measure for `Cc1ccc(-c2cc3c(ccc4oc5ccccc5c43)o2)cc1`: 21.6%.
On the same count and under the same terms, the same measure for `c1ccc(-c2cc3c(ccc4oc5ccccc5c43)o2)cc1`: 32.1%; for `c1ccc2c(c1)oc1ccc3oc(-c4ccsc4)cc3c12`: 23.1%.
Same read-out and setting: as for `Fc1ccc(-c2cc3c(ccc4oc5ccccc5c43)o2)c(F)c1`, the figure is 34.1%; as for `COc1ccc(-c2cc3c(ccc4oc5ccccc5c43)o2)c(C)c1`, 32.1%.
For `CCCCCc1ccc(-c2cc3c(ccc4oc5ccccc5c43)o2)cc1`, the cytotoxicity at 72 h, 50 ug/ml came to 40.2%.
The same measure, in the same setting: the same measure for `Cc1cccc(-c2cc3c(ccc4oc5ccccc5c43)o2)c1`: 56.8%.
The same measure, in the same setting: as for `CCCCCCc1cc2c(ccc3oc4ccccc4c32)o1`, the figure is 32.1%; as for `COc1ccc(-c2cc3c(ccc4oc5ccccc5c43)o2)cc1`, 13.8%.
